What was measured:
[1] = system: H322; test: Compound tested for cytotoxic Activity against H-322 cell line from lung carcinoma; format: functional, cell-based; details: Homo sapiens, NCI-H322
[2] = system: MOLT-4; test: Compound tested for cytotoxic Activity against Molt-4 cell line from T cell leukemia; format: functional, cell-based; details: Homo sapiens
[3] = system: P388; test: Compound tested for cytotoxic Activity against P-388 cell line from mouse leukemia; format: functional, cell-based
[4] = system: OVCAR-3; test: Compound tested for cytotoxic Activity against Ovcar-3 cell line from ovarian carcinoma; format: functional, cell-based; details: Homo sapiens
[5] = system: NHDF; test: (§1) Compound tested for cytotoxic Activity against NHDF cell line; format: functional, cell-based; details: Homo sapiens
[6] = system: UCLA P-3; test: Compound tested for cytotoxic Activity against UCLA-P3 cell line from lung carcinoma; format: functional, cell-based; details: Homo sapiens
[7] = system: SK-MEL-28; test: Compound tested for cytotoxic Activity against SK-Mel-28 cell line from melanoma; format: functional, cell-based; details: Homo sapiens
[8] = system: HT-29; test: Compound tested for cytotoxic Activity against HT-29 cell line from colon carcinoma; format: functional, cell-based; details: Homo sapiens
[9] = system: CAPAN-1; test: Compound tested for cytotoxic Activity against Capan-l cell line from pancreatic carcinoma; format: functional, cell-based; details: Homo sapiens
[10] = system: HL-60; test: Compound tested for cytotoxic Activity against HL-60 cell line from promyelocytic leukemia; format: functional, cell-based; details: Homo sapiens
[11] = system: MCF7; test: Compound tested for cytotoxic Activity against MCF-7 cell line from breast carcinoma; format: functional, cell-based; details: Homo sapiens
[12] = system: CHO; test: (§2) Compound tested for cytotoxic Activity against CHO cell line; format: functional, cell-based; details: Cricetulus griseus
[13] = system: H322; test: Compound tested for cytotoxic Activity against H-322 cell line from lung carcinoma; Non toxic; format: functional, cell-based, Homo sapiens
[14] = system: CHO; test: Compound tested for cytotoxic Activity against CHO cell line; Not toxic; format: functional, cell-based, Cricetulus griseus
[15] = system: NHDF; test: Compound tested for cytotoxic Activity against NHDF cell line; Not toxic; format: functional, cell-based, Homo sapiens
[16] = system: CHO; test: as §2; format: cell-based; details: Cricetulus griseus
[17] = system: NHDF; test: as §1; format: cell-based; details: Homo sapiens

| Compound | IC50 [1] | IC50 [2] | IC50 [3] | IC50 [4] | IC50 [5] | IC50 [6] | IC50 [7] | IC50 [8] | IC50 [9] | IC50 [10] | IC50 [11] | IC50 [12] | IC50 [13] | IC50 [14] | IC50 [15] | IC50 [16] | IC50 [17] |
| --- | --- | --- | --- | --- | --- | --- | --- | --- | --- | --- | --- | --- | --- | --- | --- | --- | --- |
| C[C@@H](COC(=O)N1c2ccccc2[C@@]23O[C@]24CCC[C@@H]3C#C/C=C\C#C[C@H]14)S(=O)(=O)c1ccccc1 | 13 µM | 0.01 µM | 1.6 µM | 3.1 µM | 1000 µM | 3.1 µM | 50 µM | 0.78 µM | 3.1 µM | 0.78 µM | 25 µM | 1000 µM |  |  |  |  |  |
| C[C@H](COC(=O)N1c2ccccc2[C@@]23O[C@]24CCC[C@@H]3C#C/C=C\C#C[C@H]14)S(=O)(=O)c1ccccc1 |  | 10 µM | 1.6 µM | 13 µM | > 1000 µM | 13 µM | > 1000 µM | 13 µM | 6.3 µM | 1.6 µM | > 1000 µM | > 1000 µM | Non-toxic |  |  |  |  |
| CC(C)(COC(=O)N1c2ccccc2[C@@]23O[C@]24CCC[C@@H]3C#C/C=C\C#C[C@H]14)S(=O)(=O)c1ccccc1 | 50 µM | 1000 µM | 13 µM | 50 µM |  | 50 µM | < 1000 µM | 25 µM | 50 µM | 25 µM | 25 µM |  |  | Non-toxic | Non-toxic |  |  |
| O=C(OCCS(=O)(=O)c1ccccc1)N1c2ccccc2[C@@]23O[C@]24CCC[C@@H]3C#C/C=C\C#C[C@H]14 | 3.1 µM | 1e-05 µM | 0.098 µM | 0.78 µM |  | 0.78 µM | 63 µM | 0.39 µM | 0.078 µM | 0.098 µM | 3.1 µM |  |  |  |  | 6.3 µM | 6.3 µM |
